Holding throughout (type): cell-based
For experiment [1], the system named is PATU‐T. Briefly: SRB chemosensitivity assay, PATU‐T cells. The note with it: read-out: IC50 PATU‐T. The method, then: Three lines of immortalized PDAC cells were selected as representative phenotypes: mesenchymal (PATU‐T), quasimesenchymal (PANC‐1), and an epithelial clone of SUIT 2 cells (SUIT 2.28). Cells were cultured in noncoated T‐75 and T‐25 flasks under adherent conditions, using 1× DMEM (Gibco, 41,966,029) for PATU‐T and RPMI (Gibco, 21,875,034) for SUIT 2.28 and PANC‐1, both supplemented with 10% NBCS and 1% P/S. Additional employed models were the PDAC3 cells, a primary cell culture, the PSCs, which were immortalized healthy pancreatic cells, and the PATU‐T‐GR, which was a gemcitabine resistant model of PATU‐T. PDAC3 and PSCs were cultivated using complete RPMI medium, while PATU‐T‐GR required complete DMEM medium. For seeding, cells were detached with Trypsin‐EDTA (0.05%) (GibcoTM, 25,300–096) and were consequently counted using the Automated Cell Counter (Luna‐II, Westburg). Cells were then plated on 96‐ or 6‐well plates depending on the planned experiment.
The Sulforhodamine B (SRB) chemosensitivity assay was used to measure cytotoxicity and cell proliferation post drug treatment. At day 0, 3–6 × 10^3 cells were seeded in a 96‐well plate, depending on the cell line. At day 1, cells were attached and ready to be treated. For the calculation of the IC50, drug dilutions for the compounds 1b, 1c, 1d, 1e, 1g, 1hr, 1i, 1j, and LDC4297 (MedChemExpress, HY‐12,653) were prepared in dilution trays and eight different concentrations were included. These were added in triplicates to the cells, which were then incubated for […] at 37 °C in 5% CO2. During day 1, the control plate was fixed with 50% Trichloroacetic acid (TCA), as intended to be the baseline plate used for the normalization of the data. 72 h post‐treatment, the cells were fixed with TCA, and placed at 4 °C for about 2 h. The plates were then washed with distillated water and left to dry under the hood with ventilation. Subsequently, plates were stained with 0.4% SRB for 15 min and washed with 1% acetic acid to remove excess stain. Once dried again, the protein‐bound SRB was dissolved in 10 mM TRIS, and the plates were placed on a shaker for 10 min per plate. Lastly, the absorbance was measured at 492 nm with a spectrophotometer (Synergy HT, BioTek). The absorbance data obtained were normalized to the day 1 control, and the percentage of cell growth in relation to the control was calculated using the following formula. (1) %Cell growth=Mean OD treatment−Mean OD day0/Mean OD control−Mean OD day0×100
The percentage of proliferation and their respective standard deviations were used to perform statistical analysis in GraphPad Prism software v 10 (GraphPad Software, San Diego, CA). Data were normalized to the day 0 control and to their own untreated 72 h control. These were transformed into logarithmic data, and log(inhibitor) versus response analysis was performed for obtaining the IC50 values per cell lines. Each experiment was conducted in triplicates.
Background: Sulforhodamine B stains cellular protein and so reports cell mass.

Experiment [2] relates to Bax/Bcl‐2. As to the kind of experiment: Bax/Bcl‐2 ratio by RT‐PCR, PANC‐1 cells. The method, then:
(§1) In order to understand modulation of downstream genes of CDK7, gene expression analysis by qPCR was performed in all cell lines. Cells (5 × 10^5/well) were seeded in 6‐well plates and treated with the compounds 1b and 1g at 1× and 4 × IC50 concentrations. Cell lysates were collected 24 h post‐treatment using 300 µL of TRIzol Reagent (Ambion, 15,596,018) per well. Total RNA was extracted by mixing 60 µL of chloroform to the samples, incubating for 3 min and centrifuging at 12,000 rcf for 15 min at 4 °C. The upper aqueous phase containing RNA was transferred to a new Eppendorf and mixed with 120 µL of cold isopropanol in order to allow the RNA to precipitate. Samples were incubated at RT for 10 min and were then centrifuged at 12,000 rcf for 10 min at 4 °C. The isopropanol was carefully removed, and the pellet was washed twice with 70% ETOH. Pellets were left to air dry and consequently resuspended in RNAse‐free water. Samples were left agitation on a thermomixer at 55 °C for 10 min at 600 rpm and were then quantified through NanoDrop technology (Thermo Scientific, NanoDrop One/One^c). RNA samples were stored at −80 °C.
(§2) In order to perform cDNA synthesis, the First Strand cDNA synthesis kit (Thermo Scientific, K1612) was used. The previously isolated RNA was mixed with 1 µL of oligo dT18 primer into a pcr tube. Nuclease free water was added to reach a final volume of 11 µL. Samples were centrifuged at 1200 rcf for 5 min and were then placed on a thermomixer at 65 °C for a few minutes. A master mix was prepared, including 4 µL of 5× reaction buffer, 1 µL of ribolock RNAse inhibitor, 2 µL of dntp mix (10 mM), and 2 µL of M‐mulv reverse transcriptase for each sample. In total 9 µL of master mix were added to each vial. Samples were centrifuged again and were finally synthesized, following a cycle of 60 min at 37 °C and 5 min at 70 °C. cDNA was now finally synthesized and could be stored at −20 °C. RT‐PCRs reactions were performed using SYBR Green (Bio‐Rad, 1,725,271) (5 µL per sample), primer mix (0.3 µM) (2 µL per sample), and cDNA (10 ng µL^− ^1) (3 µL per sample). […] RT‐PCR assays were carried out in a GeneAmp 5700 Sequence Detection System programmed to hold at 50 °C for 30 min, to hold at 95 °C for 10 min, and to complete 45 cycles of 95 °C for […] and 50 °C for 1 min. The genes that were investigated are shown in Table 5 , with their respective forward and reverse primer sequences.

The test system of experiment [3] is Bax/Bcl‐2. As to the kind of experiment: Bax/Bcl‐2 ratio by RT‐PCR, SUIT 2.28 cells. The method, then: as §1, §2

Structures are written as SMILES. Where two headings read alike, the source gives them in different places.

On to `Nc1ncnc2cc(-c3c[nH]c4ccc(Br)cc34)nn12` [Compound 1b, 7‐(5‐Bromo‐1H‐indol‐3‐yl)pyrazolo[1,5‐a][1,3,5]triazin‐4‐amine], for which the IC50 (commonly the midpoint of a concentration-inhibition curve) in experiment [1] (SRB, 72 h of treatment, average ± SEM, triplicate) was 1400 ± 200 nM. Also, the “Bax/Bcl‐2 ratio PANC‐1” value is given as 4.12 in experiment [2] (1 × IC50, 24 h after treatment) and 2.44 in experiment [2] (4 × IC50, 24 h after treatment). The “Bax/Bcl‐2 ratio SUIT 2.28” value in experiment [3] (1 × IC50, 24 h after treatment) came out at 1.07; in experiment [3] (4 × IC50, 24 h after treatment), 1.45.
As for `Cn1cc(-c2cc3ncnc(N)n3n2)c2cc(Br)ccc21` [Compound 1g, 7‐(5‐Bromo‐1‐methyl‐1H‐indol‐3‐yl)pyrazolo[1,5‐a][1,3,5]triazin‐4‐amine], the IC50 in experiment [1] (72 h) turned out to be 1300 ± 100 nM. Further, the “Bax/Bcl‐2 ratio PANC‐1” value was found to be 6.41 in experiment [2] (1 × IC50, 24 h after treatment) and 1.83 in experiment [2] (4 × IC50, 24 h after treatment). In addition, the “Bax/Bcl‐2 ratio SUIT 2.28” value amounted to 1.21 in experiment [3] (1 × IC50, 24 h after treatment) and 2.06 in experiment [3] (4 × IC50, 24 h after treatment).
